Laboratory results: US3985884A, “Complement inhibitors” (American Cyanamid Company, priority 1975, dated 1976)
Where a name gives a salt, the structure may show the parent alone.

System: complement level
Assay: Complement Level Reduction Test
Format: in vivo
Conditions: serum of dosed guinea pigs, undiluted serum capillary tube method, compared to undosed controls

Question: O=C(Nc1ccc(-n2nc3ccc4cc(S(=O)(=O)O)cc(O)c4c3n2)c(S(=O)(=O)O)c1)Nc1ccc(-n2nc3ccc4cc(S(=O)(=O)O)cc(O)c4c3n2)c(S(=O)(=O)O)c1 [3,3'-Ureylenebis[6-(9-hydroxy-7-sulfo-2H-naphtho[1,2-d]triazol-2-yl)benzenesulfonic acid] tetrasodium salt] was tested. Which “% Reduction Complement, In Vivo” value did it give?
Answer: 42%
